Laboratory results from paper PMC8151276, “An Integrated Approach toward NanoBRET Tracers for Analysis of GPCR Ligand Engagement” (Molecules, 2021).

Target: T1, F2RL1 (Homo sapiens, UniProt P55085)
T1 construct: purchased Promega (in-house HiBiT-GPCR construct library, NanoBRET)
T1 sequence (P55085 26-397): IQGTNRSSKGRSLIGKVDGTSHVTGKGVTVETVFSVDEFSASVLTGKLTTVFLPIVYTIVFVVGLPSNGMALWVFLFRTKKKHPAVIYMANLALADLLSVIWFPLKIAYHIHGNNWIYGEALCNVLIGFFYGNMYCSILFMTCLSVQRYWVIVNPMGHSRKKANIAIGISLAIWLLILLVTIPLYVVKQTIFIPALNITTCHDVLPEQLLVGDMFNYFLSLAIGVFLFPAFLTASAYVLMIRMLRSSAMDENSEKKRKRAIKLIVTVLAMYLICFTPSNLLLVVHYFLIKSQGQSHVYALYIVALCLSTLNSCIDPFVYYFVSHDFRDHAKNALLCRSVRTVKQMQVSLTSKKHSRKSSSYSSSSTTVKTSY
Experiment: NanoBRET screen HiBiT-F2RL1 in HEK293
Format: binding
Description: Each tracer candidate was screened across the entire library of HiBiT-GPCR constructs using NanoBRET as the detection modality. As depicted in Figure 4A, the specificity of interactions was evaluated through decrease in BRET due to competitive displacement of a bound tracer by excess parental compound. Each tracer was analyzed for binding to each HiBiT-GPCR fusion in the absence and in the presence of competing parental compound. Briefly, HEK293 cells were transfected with HiBiT-GPCR constructs diluted into promoterless DNA to reduce expression and maximize translocation to the cell surface. Each tracer candidate was then screened at concentrations of 1 μM and 0.1 μM across cells expressing these fusions. Cells were treated for 1.5 h with tracer either alone or in the presence of 20 μM competing parental compound (i.e., control). BRET was measured upon addition of purified LgBiT and subsequent complementation with HiBiT genetically fused to a GPCR. The specificity of interactions was assessed through a decrease in BRET signal due to competitive displacement of the bound tracer. To further gauge the robustness of these interactions, the fold response over the control (i.e., BRETtracer/BRETcontrol) was calculated. We chose a 1.5-fold response, which translates to ≥7-fold signal over noise as the minimal threshold required to score an interaction as positive. […]. Below we highlight the screening results obtained for our exemplary fluorescent tracers based on Clozapine, Amitriptyline and AZD1283.
HiBiT-GPCR DNA constructs were diluted in 10 mM Tris pH 8 to a final concentration of 0.01 μg/μL, arrayed in 96-well plates and stored at −20 °C. For transfection, HEK293 cells were suspended in Opti-MEM (without phenol red) supplemented with 2% fetal bovine serum (Seradigm) and 100 units/mL penicillin–streptomycin (Gibco) at a final concentration of 220,000 cells/mL and dispensed into white 96-well plates at 90 μL/well. Subsequent transfections and screens were carried using an Agilent Bravo Automated Liquid Handling Platform. First, the 96-well HiBiT DNA arrays were diluted 25-fold in Opti-MEM (without serum or phenol red) to a final concentration of 0.0004 μg/μL and 20 μL of the diluted DNAs were transferred into new 96-well plates. Next, promoterless carrier DNA (1 μg/μL) was diluted 25-fold (0.04 μg/μL) and then dispensed into the diluted arrays at 20 μL/well. Following brief mixing, Viafect transfection reagent (Promega) diluted 16-fold into Opti-MEM was dispensed into the plates at 40 μL/well. After mixing by pipetting, plates were incubated for 10 min on the pipetting station deck. The DNA-transfection reagent complexes were then added to plates containing cells. To facilitate the screen, 10 μL of DNA-transfection reagent complexes were added in duplicates to the top 4 and bottom 4 rows, resulting in two identical 48-well arrays per plate. Plates with transfected cells were incubated for 18–20 h at 37 °C/5% CO2. A screen of each tracer across the entire library using two different concentrations requires duplicate plates of transfected cells. Depending on the number of tracers being screened, transfections can be scaled up using the same ratios. The next day, for each tracer, four 20× screening solutions in tracer dilution buffer (Promega) were prepared: two duplicates at final concentration of 20 μM and two duplicates at a final concentration of 2 μM. A competing unmodified compound was added to one of each duplicate at a final concentration of 400 μM. The four resulting solutions were diluted 4-fold in Opti-MEM without serum or phenol red to generate 5× solutions (5 µM and 0.5 µM tracer +/− 100 μM competing compound). To screen the library, a BioTek MultiFlo FX liquid dispenser was used to dispense 22.5 µL of tracer solution to the top 4 rows and 22.5 µL tracer + competing compound solution to the 4 bottom rows. Plates were briefly mixed on an orbital shaker and incubated for 1.5 h at room temperature. […]

Q: Which “NanoBRET Fold Response” value (F2RL1, tracer 0.1μM) does the source give for `O=C(CCOCCOCCOCCOCCNC(=O)CCc1ccc2n1[B-](F)(F)[N+]1=C(c3ccc[nH]3)C=CC1=C2)NCCCN1CCN(C2=Nc3ccccc3Oc3ccc(Cl)cc32)CC1` [Loxapine-a-2-NB590] here?
A: Its value is 1.12.

Q: What about the “NanoBRET Fold Response” value (F2RL1, tracer 1μM) of the same compound?
A: The value was 1.14.

Q: `CCCn1c(=O)c2[nH]c(-c3ccc(OCC(=O)NCCNC(=O)CCOCCNC(=O)c4ccc(CNC(=O)CCc5ccc6n5[B-](F)(F)[N+]5=C(c7ccc[nH]7)C=CC5=C6)cc4)cc3)nc2n(CCC)c1=O` [XAC-3-NB590] was tested. Which “NanoBRET Fold Response” value (F2RL1, tracer 0.1μM) did it give?
A: Its value is 1.04.

Q: And the “NanoBRET Fold Response” value (F2RL1, tracer 1μM)?
A: Its value is 0.97.

Q: What does the source list for `CN(C)CCC=C1c2ccccc2CCc2ccc(C(=O)NCCNC(=O)CCOCCOCCOCCOCCNC(=O)CCc3ccc4n3[B-](F)(F)[N+]3=C(c5ccc[nH]5)C=CC3=C4)cc21` [Amitriptyline-a-2-NB590]?
A: NanoBRET Fold Response (tracer at 0.1μM): 1.01; NanoBRET Fold Response (tracer at 1μM): 1.07

Q: `COc1ccccc1N1CCN(CCCCN2C(=O)c3ccc(CNC(=O)CCOCCOCCOCCOCCNC(=O)CCc4ccc5n4[B-](F)(F)[N+]4=C(c6ccc[nH]6)C=CC4=C5)cc3C2=O)CC1` [NAN-190-2-NB590] was tested. Which “NanoBRET Fold Response” value (F2RL1, tracer 0.1μM) did it give?
A: The value was 0.96.

Q: What about the “NanoBRET Fold Response” value (F2RL1, tracer 1μM) of the same compound?
A: The value was 0.98.

Q: `O=C(CCc1ccc2n1[B-](F)(F)[N+]1=C(c3ccc[nH]3)C=CC1=C2)NCc1ccc(C(=O)NCCOCCOCCNCC(O)COc2cccc3ccccc23)cc1` (stereo not shown) [Propranolol-3-NB590] was tested. Which “NanoBRET Fold Response” value (F2RL1, 0.1μM) did it give?
A: The value was 1.05.

Q: What about the “NanoBRET Fold Response” value (F2RL1, 1μM) of the same compound?
A: The value was 1.07.

Q: For `COc1ccccc1N1CCN(CCCCN2C(=O)c3ccc(CNC(=O)CCOCCNC(=O)c4ccc(CNC(=O)CCc5ccc6n5[B-](F)(F)[N+]5=C(c7ccc[nH]7)C=CC5=C6)cc4)cc3C2=O)CC1` [NAN-190-3-NB590], which “NanoBRET Fold Response” value (F2RL1, tracer 0.1μM) is on record?
A: Its value is 0.96.

Q: And the “NanoBRET Fold Response” value (F2RL1, tracer 1μM)?
A: The value was 1.08.

Q: For `O=C(CCc1ccc2n1[B-](F)(F)[N+]1=C(c3ccc[nH]3)C=CC1=C2)NCc1ccc(C(=O)NCCOCCC(=O)N[C@@H]2CC[C@@]3(O)[C@H]4Cc5ccc(O)c6c5[C@@]3(CCN4CC3CC3)[C@H]2O6)cc1` [Naltrexone-3-NB590], which “NanoBRET Fold Response” value (F2RL1, tracer 0.1μM) is on record?
A: Its value is 0.79.

Q: And the “NanoBRET Fold Response” value (F2RL1, tracer 1μM)?
A: The value was 0.91.

Q: `CCOC(=O)c1cc(C#N)c(N2CCC(C(=O)NS(=O)(=O)Cc3ccccc3/C=C/C(=O)NCCNC(=O)CCc3ccc4n3[B-](F)(F)[N+]3=C(c5ccc[nH]5)C=CC3=C4)CC2)nc1C` [AZD1283-1-NB590] was tested. Which “NanoBRET Fold Response” value (F2RL1, 0.1μM) did it give?
A: The value was 1.06.

Q: And the “NanoBRET Fold Response” value (F2RL1, 1μM)?
A: The value was 1.06.

Q: With `COc1ccc2[nH]c(-c3ccc(CNC(=O)CCOCCOCCOCCOCCNC(=O)CCc4ccc5n4[B-](F)(F)[N+]4=C(c6ccc[nH]6)C=CC4=C5)cc3)c(CCNC(C)=O)c2n1` [AzomelatoninICO9-2-NB590] as the compound, how does the “NanoBRET Fold Response” value (0.1μM tracer) read?
A: Its value is 0.95.

Q: And the “NanoBRET Fold Response” value (1μM tracer)?
A: Its value is 0.83.

Q: For `CC(C)N(CC[C@H](c1ccccc1)c1cc(CCNC(=O)CCOCCOCCOCCOCCNC(=O)CCc2ccc3n2[B-](F)(F)[N+]2=C(c4ccc[nH]4)C=CC2=C3)ccc1O)C(C)C` [Tolterodine-2-NB590], which “NanoBRET Fold Response” value (F2RL1, tracer 0.1μM) is on record?
A: The value was 1.07.

Q: And the “NanoBRET Fold Response” value (F2RL1, tracer 1μM)?
A: The value was 1.03.

Q: What does the source list for `CN1CCN(C2=Nc3cc(Cl)ccc3N(CC(=O)NCCOCCOCCOCCOCCNC(=O)CCc3ccc4n3[B-](F)(F)[N+]3=C(c5ccc[nH]5)C=CC3=C4)c3ccccc32)CC1` [Clozapine-c-2-NB590]?
A: NanoBRET Fold Response (F2RL1, 0.1μM tracer): 0.97; NanoBRET Fold Response (F2RL1, 1μM tracer): 1.00

Q: What does the source list for `N#CN=C(NCCCOc1cccc(CN2CCCCC2)c1)NCCNC(=O)CCOCCOCCOCCOCCNC(=O)CCc1ccc2n1[B-](F)(F)[N+]1=C(c3ccc[nH]3)C=CC1=C2` [Aminopotentidine-2-NB590]?
A: NanoBRET Fold Response (F2RL1, tracer 0.1μM): 1.03; NanoBRET Fold Response (F2RL1, tracer 1μM): 0.99

Q: How did the “NanoBRET Fold Response” value (0.1μM tracer) turn out when `COc1ccc2c(n1)c(CCNC(C)=O)cn2CCNC(=O)CCc1ccc2n1[B-](F)(F)[N+]1=C(c3ccc[nH]3)C=CC1=C2` [Azamelatonin-1-NB590] was run?
A: Its value is 1.21.

Q: What about the “NanoBRET Fold Response” value (1μM tracer) of the same compound?
A: The value was 0.93.

Q: What does the source list for `CC(C)N(CC[C@H](c1ccccc1)c1cc(CCNC(=O)c2ccc(CNC(=O)CCc3ccc4n3[B-](F)(F)[N+]3=C(c5ccc[nH]5)C=CC3=C4)cc2)ccc1O)C(C)C` [Tolterodine-BZ-NB590]?
A: NanoBRET Fold Response (F2RL1, tracer 0.1μM): 0.97; NanoBRET Fold Response (F2RL1, tracer 1μM): 0.98

Q: With `O=C(CCc1ccc2n1[B-](F)(F)[N+]1=C(c3ccc[nH]3)C=CC1=C2)NCCOCCOCCNC(=O)OCCOCCN1CCN(C2=Nc3ccccc3Sc3ccccc32)CC1` [Quetiapine-a-2-NB590] as the compound, how does the “NanoBRET Fold Response” value (F2RL1, tracer 0.1μM) read?
A: Its value is 0.88.

Q: And the “NanoBRET Fold Response” value (F2RL1, tracer 1μM)?
A: Its value is 0.71.

Q: Which “NanoBRET Fold Response” value (F2RL1, tracer 0.1μM) does the source give for `Cc1cc2c(s1)Nc1ccccc1N=C2N1CCN(CCCNC(=O)CCOCCOCCOCCOCCNC(=O)CCc2ccc3n2[B-](F)(F)[N+]2=C(c4ccc[nH]4)C=CC2=C3)CC1` [Olanzapine-a-2-NB590] here?
A: Its value is 1.04.

Q: And the “NanoBRET Fold Response” value (F2RL1, tracer 1μM)?
A: The value was 0.96.

Q: Which results are given for `CN(C)CCC=C1c2ccccc2CCc2ccc(C(=O)NCCNC(=O)CCOCCOCCOCCOCCNC(=O)CCc3ccc4n3[B-](F)(F)[N+]3=C(c5ccc[nH]5)C=CC3=C4)cc21` [Amitriptyline-b-2-NB590]?
A: NanoBRET Fold Response (tracer at 0.1μM, listed as amitriptyline-b-2-NB590): 1.10; NanoBRET Fold Response (tracer at 1μM, listed as amitriptyline-b-2-NB590): 1.00

Q: Which results are given for `O=C(CCOCCOCCOCCOCCNC(=O)CCc1ccc2n1[B-](F)(F)[N+]1=C(c3ccc[nH]3)C=CC1=C2)NCCCN1CCN(C2=Nc3cc(Cl)ccc3Nc3ccccc32)CC1` [Clozapine-a-2-NB590]?
A: NanoBRET Fold Response (F2RL1, 0.1μM tracer): 0.89; NanoBRET Fold Response (F2RL1, 1μM tracer): 1.16

Q: What does the source list for `CN1CCN(C2=Nc3cc(Cl)ccc3Nc3ccc(CNC(=O)CCOCCOCCOCCOCCNC(=O)CCc4ccc5n4[B-](F)(F)[N+]4=C(c6ccc[nH]6)C=CC4=C5)cc32)CC1` [Clozapine-b-2-NB590]?
A: NanoBRET Fold Response (F2RL1, 0.1μM tracer): 1.00; NanoBRET Fold Response (F2RL1, 1μM tracer): 1.06

Q: How did the “NanoBRET Fold Response” value (F2RL1, tracer 0.1μM) turn out when `Cc1nc2n(c(=O)c1CCN1CCC(c3noc4cc(F)ccc34)CC1)CCCC2OC(=O)NCCOCCOCCOCCOCCNC(=O)CCc1ccc2n1[B-](F)(F)[N+]1=C(c3ccc[nH]3)C=CC1=C2` (stereo not shown) [Risperidone-2-NB590] was run?
A: The value was 1.00.

Q: What about the “NanoBRET Fold Response” value (F2RL1, tracer 1μM) of the same compound?
A: The value was 0.94.
